Laboratory results as given in article PMC3214968 (Journal of medicinal chemistry, 2011).

Columns and labels:
matriptase activation [1] = target: T1, matriptase activation (Homo sapiens, UniProt Q9Y5Y6); experiment: Acid-induced matriptase activation in HaCaT keratinocytes, immunoblot; assay type: cell-based; conditions: HaCaT cells, pH 6.0, dose-dependent
T1 sequence (Q9Y5Y6 1-855): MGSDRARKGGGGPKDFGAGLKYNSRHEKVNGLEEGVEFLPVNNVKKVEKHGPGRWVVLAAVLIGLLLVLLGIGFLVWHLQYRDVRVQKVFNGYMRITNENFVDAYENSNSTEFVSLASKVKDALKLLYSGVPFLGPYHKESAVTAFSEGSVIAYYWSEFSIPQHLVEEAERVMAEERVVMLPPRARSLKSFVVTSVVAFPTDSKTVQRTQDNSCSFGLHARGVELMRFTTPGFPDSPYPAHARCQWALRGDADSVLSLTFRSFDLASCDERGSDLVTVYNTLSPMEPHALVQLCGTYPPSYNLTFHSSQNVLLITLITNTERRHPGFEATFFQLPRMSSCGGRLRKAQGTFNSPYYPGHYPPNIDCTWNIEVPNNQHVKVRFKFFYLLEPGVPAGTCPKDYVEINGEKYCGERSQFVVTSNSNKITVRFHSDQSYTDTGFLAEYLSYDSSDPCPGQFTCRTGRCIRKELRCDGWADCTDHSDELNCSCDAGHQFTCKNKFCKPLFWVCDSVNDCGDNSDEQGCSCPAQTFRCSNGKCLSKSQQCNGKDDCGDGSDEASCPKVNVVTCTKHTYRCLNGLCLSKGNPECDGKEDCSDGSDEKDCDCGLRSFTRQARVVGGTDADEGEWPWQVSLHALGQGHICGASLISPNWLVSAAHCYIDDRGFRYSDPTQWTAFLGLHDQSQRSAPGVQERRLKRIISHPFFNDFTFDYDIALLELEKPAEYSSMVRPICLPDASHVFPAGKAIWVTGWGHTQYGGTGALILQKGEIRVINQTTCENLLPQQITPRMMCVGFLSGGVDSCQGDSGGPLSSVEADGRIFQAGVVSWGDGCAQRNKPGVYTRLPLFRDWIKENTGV

matriptase activation [2] = target: T1, matriptase activation; assay type: cell-based; conditions: 184 A1N4 intact cells; for Inhibition of matriptase activation by immunoblot, increasing concentrations: pH 6.0, mAb M24 and M69
matriptase activation [3] = target: T1, matriptase activation; experiment: Cell-free in vitro matriptase activation assay; assay type: biochemical; conditions: insoluble fractions of 184 A1N4 cell homogenates, pH 6.0
prostasin activation = experiment: Acid-induced prostasin activation in HaCaT keratinocytes, immunoblot; assay type: cell-based, human; conditions: HaCaT cells, pH 6.0, dose-dependent
[4] = target: T2, matriptase zymogen activation (Homo sapiens, UniProt Q9Y5Y6); experiment: Cell-based, ELISA-like matriptase activation assay; conditions: 184 A1N4 cells, pH 6.0 buffer, 20 min, ELISA-like assay and immunoblot
T2 sequence (Q9Y5Y6 1-855): T1 sequence (Q9Y5Y6 1-855)

| Compound | Inhibition of acid-induced activation of matriptase (matriptase activation [1]) | Inhibition of matriptase activation by immunoblot, increasing concentrations (matriptase activation [2]) | Inhibition of matriptase activation in the cell-free system (matriptase activation [3]) | Inhibition of acid-induced activation of prostasin (prostasin activation) | 120-kDa matriptase-HAI-1 complex (matriptase activation) by immunoblot (matriptase activation [2]; 5 μM compound, pH 6.0) | NaCl-mediated inhibition of acid-induced matriptase activation [4] |
| --- | --- | --- | --- | --- | --- | --- |
| O=C(C1=C(O)C(=O)N(c2nccs2)C1c1cccs1)c1cccs1 (centres unmarked) [compound 1, 3-hydroxy-1-(thiazol-2-yl)-5-(thiophen-2-yl)-4-(thiophene-2-carbonyl)-1H-pyrrol-2(5H)-one] | same pattern of inhibition | same pattern of inhibition | suppress matriptase activation in a dose-dependent manner | same pattern of inhibition |  |  |
| Cc1nc(N2C(=O)C(O)=C(C(=O)c3cccs3)C2c2ccccc2)sc1C (centres unmarked) [compound 3, 1-(4,5-dimethylthiazol-2-yl)-3-hydroxy-5-phenyl-4-(thiophene-2-carbonyl)-1H-pyrrol-2(5H)-one] | same pattern of inhibition | same pattern of inhibition | suppress matriptase activation in a dose-dependent manner | same pattern of inhibition |  |  |
| Cc1nc(N2C(=O)C(O)=C(C(=O)c3cccs3)C2c2cccs2)sc1C (centres unmarked) [compound 2, 1-(4,5-dimethylthiazol-2-yl)-3-hydroxy-5-(thiophen-2-yl)-4-(thiophene-2-carbonyl)-1H-pyrrol-2(5H)-one] | clearly inhibited |  | suppress matriptase activation in a dose-dependent manner | clearly inhibited | no detectable 120-kDa complex |  |
| Cc1nc(N2C(=O)C(O)=C(C(=O)c3ccccc3)C2c2cccs2)sc1C (centres unmarked) [compound 4, 4-benzoyl-1-(4,5-dimethylthiazol-2-yl)-3-hydroxy-5-(thiophen-2-yl)-1H-pyrrol-2(5H)-one] | same pattern of inhibition | same pattern of inhibition | suppress matriptase activation in a dose-dependent manner | same pattern of inhibition |  |  |
| Sodium chloride [NaCl] |  |  |  |  |  | dose-dependent manner |
